Reference: patent US10654834B2 (Venenum Biodesign, LLC, priority 2016, dated 2020)

Columns and labels:
mouse TGR5 receptor = target: T1, mouse TGR5 receptor (Mus musculus, UniProt Q80SS6); assay: Mouse TGR5 luminescent cAMP production assay (HEK293-EBNA cells, DiscoveRx cAMP XS+ kit); assay type: cell-based; conditions: HEK293-EBNA cells overexpressing mouse TGR5, luminescent cAMP assay; read-out: Mouse TGR5 Lum. cAMP Activity (EC50)
T1 construct: host or cells: HEK293-EBNA (293 c18, ATCC CRL10852)
T1 sequence (Q80SS6 1-329): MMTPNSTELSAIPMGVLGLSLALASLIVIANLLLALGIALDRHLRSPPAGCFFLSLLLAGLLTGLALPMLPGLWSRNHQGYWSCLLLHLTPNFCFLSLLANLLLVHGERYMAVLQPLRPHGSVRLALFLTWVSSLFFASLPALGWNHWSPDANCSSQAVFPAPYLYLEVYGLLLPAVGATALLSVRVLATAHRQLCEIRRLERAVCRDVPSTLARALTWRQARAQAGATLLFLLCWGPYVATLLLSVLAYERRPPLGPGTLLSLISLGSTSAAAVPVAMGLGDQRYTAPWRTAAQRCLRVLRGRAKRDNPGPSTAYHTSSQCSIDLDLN
Procedure: Mouse TGR5 cAMP Production Assay
Compounds of the present invention were evaluated for their ability to induce cAMP production in HEK-EBNA cells overexpressing the mouse TGR5 receptor. Human embryonic kidney cells (HEK293-EBNA) stably expressing mouse TGR5 receptor were established using the following procedure. Specifically, a commercially obtained gene encoding mouse TGR5 (accession number BC116914) from Thermo Scientific (Waltham, Mass.) was cloned into an episomal expression vector. The resulting expression plasmid was then transfected into 293 c18 (ATCC® CRL10852™) cells, which express the Epstein-Barr virus nuclear antigen EBNA1 and can support the replication of episomal vectors. Selection for the plasmid was maintained with Hygromycin B. Cells were cultured and maintained in DMEM (Sigma; cat #6429) supplemented with 10% Fetal Bovine Serum, 1% penicillin/streptomycin, 2 mM L-alanine L-glutamine (GlutaMax), and 250 μg/mL Hygromycin.
We developed two cAMP production assays.
(i) Luminescent cAMP Production Assay
In this first cAMP production assay, the cAMP production was measured using DiscoveRx's cAMP XS+ kit following the manufacturer's recommended protocol. Briefly, HEK293-EBNA cells stably overexpressing mouse TGR5 were harvested using non-enzymatic cell dissociation buffer (Sigma-Aldrich, St. Louis, Mo.), spun down, then resuspended in serum-free DMEM with 500 μM IBMX at a density of 1.25×10^6 cells/mL. 500 μL of cAMP antibody solution was added to 500 μL of cell suspension and incubated at room temperature for 20 min.
Test compounds were serially diluted (half-log dilutions) in DMSO and then further diluted 1:50 in PBS, 10 mM HEPES buffer. 2 μL of serially diluted compound was added to a 384-well low volume plate (Greiner cat #784075) and centrifuged briefly. 2 μl of the cell/cAMP antibody mixture was then added to each compound-containing well and allowed to incubate at room temperature for one (1) hour. Following incubation, the XS+ kits' ED/Lysis/CL Substrate Working Solution was prepared following the manufacturer's recommended protocol and 4 μL was added to each well of the plate. The plate was then incubated for one (1) hour at room temperature. Following incubation, 4 μL of (Enzyme Acceptor) EA reagent was added to the plate and allowed to incubate overnight at room temperature. Luminescent signal was then detected using the Viewlux instrument (PerkinElmer, Waltham, Mass.).
In Table 52, EC50 values for both human and mouse cells were determined according to the TGR5 cAMP assays described above. […]

human TGR5 receptor = target: T2, human TGR5 receptor (Homo sapiens, UniProt Q8TDU6); assay: Human TGR5 cAMP production assay (hTGR5-CHO cells, DiscoveRx cAMP XS+ kit); assay type: cell-based; conditions: luminescent cAMP assay, read-out: Human TGR5 Lum. cAMP Activity (EC50)
T2 construct: host or cells: CHO-K1 (hTGR5-CHO)
T2 sequence (Q8TDU6 1-330): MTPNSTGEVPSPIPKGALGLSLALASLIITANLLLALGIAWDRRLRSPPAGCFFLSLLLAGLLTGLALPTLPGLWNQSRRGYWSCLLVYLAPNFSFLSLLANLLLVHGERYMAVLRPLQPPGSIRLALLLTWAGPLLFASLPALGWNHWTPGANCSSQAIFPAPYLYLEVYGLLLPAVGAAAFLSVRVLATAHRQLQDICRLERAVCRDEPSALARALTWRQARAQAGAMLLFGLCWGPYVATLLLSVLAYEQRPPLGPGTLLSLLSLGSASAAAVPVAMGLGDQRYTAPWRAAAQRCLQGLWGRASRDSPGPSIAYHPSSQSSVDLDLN
How it was run: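 EC50 values come from luminescent enzyme-complementation cAMP detection, read after overnight incubation. Beforehand, hTGR5-expressing CHO-K1 cells with IBMX and anti-cAMP antibody were exposed 1 h at room temperature to serially diluted (half-log) compounds.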

SMILES	EC50 (mouse TGR5 receptor) [µM]	EC50 (human TGR5 receptor) [µM]
N#Cc1ccc(CCNC(=O)[C@@H]2CCCN2c2cc(OC3CCNCC3)nc(C(F)(F)F)n2)cc1 [Compound 51, (S)-N-(4-cyanophenethyl)-1-(6-(piperidin-4-yloxy)-2-(trifluoromethyl)pyrimidin-4-yl)pyrrolidine-2-carboxamide]	0.1 to 0.999	1 to 30
CC(=O)NCC1CCN(c2cc(N3CCC[C@H]3C(=O)NCCc3ccc(C#N)cc3)nc(C(F)(F)F)n2)CC1 [Compound 52, (S)-1-(6-(4-(acetamidomethyl)piperidin-1-yl)-2-(trifluoromethyl)pyrimidin-4-yl)-N-(4-cyanophenethyl)pyrrolidine-2-carboxamide]	< 0.1	0.1 to 0.999
CC(=O)N1CCC(Nc2cc(N3CCC[C@H]3C(=O)NCCc3ccc(C#N)cc3)nc(C(F)(F)F)n2)CC1 [Compound 53, (S)-1-(6-((1-acetylpiperidin-4-yl)amino)-2-(trifluoromethyl)pyrimidin-4-yl)-N-(4-cyanophenethyl)pyrrolidine-2-carboxamide]	< 0.1	1 to 30
CC(=O)N(C)CC1CCN(c2cc(N3CCC[C@H]3C(=O)NCCc3ccc(C#N)cc3)nc(C(F)(F)F)n2)CC1 [Compound 54, (S)-N-(4-cyanophenethyl)-1-(6-(4-((N-methylacetamido)methyl)piperidin-1-yl)-2-(trifluoromethyl)pyrimidin-4-yl)pyrrolidine-2-carboxamide]	< 0.1	0.1 to 0.999
CCCCCCc1ccc(-c2cc(N3CCC[C@H]3C(=O)NCCc3ccc(C#N)cc3)nc(C(F)(F)F)n2)s1 [Compound 139, (S)—N-(4-cyanophenethyl)-1-(6-(5-hexylthiophen-2-yl)-2-(trifluoromethyl)pyrimidin-4-yl)pyrrolidine-2-carboxamide]	1 to 30	1 to 30
O=C(NCCc1ccc(C(F)(F)F)cc1)[C@@H]1CCCN1c1cc(-c2ccncc2)nc(C(F)(F)F)n1 [Compound 140, (S)-1-(6-(pyridin-4-yl)-2-(trifluoromethyl)pyrimidin-4-yl)-N-(4-(trifluoromethyl)phenethyl)pyrrolidine-2-carboxamide]	0.1 to 0.999	0.1 to 0.999
N#Cc1ccc(CCNC(=O)[C@@H]2CCCN2c2cc(-c3ccncc3)nc(C(F)(F)F)n2)cc1 [Compound 141, (S)-N-(4-cyanophenethyl)-1-(6-(pyridin-4-yl)-2-(trifluoromethyl)pyrimidin-4-yl)pyrrolidine-2-carboxamide]	0.1 to 0.999	0.1 to 0.999
N#Cc1ccc(CCNC(=O)[C@@H]2CCCN2c2cc(-c3cccnc3)nc(C(F)(F)F)n2)cc1 [Compound 142, (S)-N-(4-cyanophenethyl)-1-(6-(pyridin-3-yl)-2-(trifluoromethyl)pyrimidin-4-yl)pyrrolidine-2-carboxamide]	0.1 to 0.999	1 to 30
Cc1ccc(-c2cc(N3CCC[C@H]3C(=O)NCCc3ccc(C#N)cc3)nc(C(F)(F)F)n2)cc1 [Compound 143, (S)-N-(4-cyanophenethyl)-1-(6-(p-tolyl)-2-(trifluoromethyl)pyrimidin-4-yl)pyrrolidine-2-carboxamide]	0.1 to 0.999	0.1 to 0.999
N#Cc1ccc(CCNC(=O)[C@@H]2CCCN2c2cc(-c3ccccc3)nc(C(F)(F)F)n2)cc1 [Compound 144, (S)-N-(4-cyanophenethyl)-1-(6-phenyl-2-(trifluoromethyl)pyrimidin-4-yl)pyrrolidine-2-carboxamide]	0.1 to 0.999	0.1 to 0.999
N#Cc1ccc(CCNC(=O)[C@@H]2CCCN2c2cc(-c3ccc(C#N)cc3)nc(C(F)(F)F)n2)cc1 [Compound 145, (S)-N-(4-cyanophenethyl)-1-(6-(4-cyanophenyl)-2-(trifluoromethyl)pyrimidin-4-yl)pyrrolidine-2-carboxamide]	< 0.1	0.1 to 0.999
N#Cc1ccc(CCNC(=O)[C@@H]2CCCN2c2cc(-c3ccc(C(F)(F)F)cc3)nc(C(F)(F)F)n2)cc1 [Compound 147, (S)-N-(4-cyanophenethyl)-1-(2-(trifluoromethyl)-6-(4-(trifluoromethyl)phenyl)pyrimidin-4-yl)pyrrolidine-2-carboxamide]	0.1 to 0.999	0.1 to 0.999
